Reference: ChEMBL document CHEMBL1152943, “Synthesis and in vitro anti-hepatitis B virus activity of 6H-[1]benzothiopyrano[4,3-b]quinolin-9-ols” (Bioorg Med Chem, 2009)

Key:
[1] = system: Hepatitis B virus; test: Antiviral activity against HBV infected in human HepG2(2.2.15) cells assessed as inhibition of HBV DNA replication; assay type: functional, organism-based
[2] = Selectivity index, ratio of TC50 for human HepG2(2.2.15) cells to IC50 for inhibition of HBV DNA replication
[3] = Cytotoxicity against human HepG2(2.2.15) cells after 24 hrs by neutral red dye staining; assay type: functional; settings: HepG2 2.2.15, 24 h
[4] = system: Hepatitis B virus; test: Antiviral activity against HBV infected in human HepG2(2.2.15) cells assessed as inhibition of HBV surface antigen at < TC50; assay type: functional, organism-based
[5] = Selectivity index, ratio of TC50 for human HepG2(2.2.15) cells to IC50 for inhibition of HBV surface antigen
[6] = system: Hepatitis B virus; test: Antiviral activity against HBV infected in human HepG2(2.2.15) cells assessed as inhibition of HBV surface antigen; assay type: functional, organism-based
[7] = Hepatitis B virus, HepG2 2.2.15, read-out: IC50

SMILES	IC50 [1, 7] [µM]	IC50 ([1]; hepg2 2.2.15)	IC50 [6] [µM]	Selectivity Index [2]	CC50 [3] [µM]	IC50 [4]	Selectivity Index [5]
CCN(CC)Cc1c(O)c(OC)cc2nc3c(cc12)CSc1ccccc1-3		Not Active			39	Not Active	
COc1cc2nc3c(cc2c(CN2CCOCC2)c1O)CSc1ccccc1-3		Not Active			42.1	Not Active	
Nc1ccn([C@@H]2CS[C@H](CO)O2)c(=O)n1 [LAMIVUDINE]	240			9.1	2180	Not Active	
COc1cc2nc3c(cc2c(CN2CCOCC2)c1O)CSc1c(C)cc(C)cc1-3		Not Active			50.6	Not Active	
COc1cc2nc3c(cc2c(CN(C)C)c1O)CSc1ccccc1-3		Not Active	9.3		36.5		3.9
COc1cc2nc3c(cc2c(CN(C)C)c1O)CSc1c(C)cc(C)cc1-3		Not Active	13.8		32.4		2.4
COc1cc2nc3c(cc2c(CN2CCCCC2)c1O)CSc1c(C)cc(C)cc1-3	4.2			5.3	21.9	Not Active	
CCN(CC)Cc1c(O)c(OC)cc2nc3c(cc12)CSc1cc(F)ccc1-3	2.4			8.7	20.7	Not Active	

The next lines start with results.

IC50 [1, 7] [µM]	IC50 ([1]; hepg2 2.2.15)	IC50 [6] [µM]	SMILES	Selectivity Index [2]	CC50 [3] [µM]	IC50 [4]	Selectivity Index [5]
2			CCN(CC)Cc1c(O)c(OC)cc2nc3c(cc12)CSc1ccc(C)cc1-3	6	12	Not Active	
	Not Active		COc1cc2nc3c(cc2c(CN2CCN(C)CC2)c1O)CSc1cc(F)ccc1-3		13.5	Not Active	
47.7			COc1cc2nc3c(cc2c(CN2CCCC2)c1O)CSc1ccc(F)cc1-3	9.1	435	Not Active	
56.3			COc1cc2nc3c(cc2c(CN2CCCC2)c1O)CSc1ccc(C)cc1-3	2.6	146	Not Active	
107			COc1cc2nc3c(cc2c(CN2CCN(C)CC2)c1O)CSc1ccc(C)cc1-3	4.9	527	Not Active	
	Not Active	22.1	COc1cc2nc3c(cc2c(CN(C)C)c1O)CSc1ccc(C)cc1-3		67.3		3
	Not Active		COc1cc2nc3c(cc2c(CN2CCN(C)CC2)c1O)CSc1ccccc1-3		25.2	Not Active	
173			COc1cc2nc3c(cc2c(CN2CCCC2)c1O)CSc1cc(F)ccc1-3	3.3	566	Not Active	
	Not Active		COc1cc2nc3c(cc2c(CN2CCOCC2)c1O)CSc1cc(F)ccc1-3		28.8	Not Active	
14.7			COc1cc2nc3c(cc2c(CN2CCOCC2)c1O)CSc1ccc(C)cc1-3	12.4	181	Not Active	
	Not Active		COc1cc2nc3c(cc2c(CN2CCOCC2)c1O)CSc1cc(C)ccc1-3		262	Not Active	
